Test results from patent publication EP2511272B1, “Synthetic analogues of abscisic acid with anti-inflammatory and insulin release stimulation effects on human cells” (Universita' degli Studi di Genova, priority 2011, dated 2012).
pIC50: −log10 of the molar value.

How the values were obtained:
granulocytes = assay: Inhibition of ABA-induced chemotaxis (granulocyte migration, ChemoTx); type: cell-based, human
Method: After ON (overnight) incubation in complete DMEM/F12, granulocytes were washed in HBSS and then were resuspended at the concentration of 1x10^7 cells/ml in chemotaxis buffer (HBSS:PBS:5% albumin; 39:16:1).
Chemotaxis was carried out on 96-well plates ChemoTx system microplates (Neuro Probe, Inc., Gaithersburg, MD, U.S.A.) with a polycarbonate filter with 3 µm-diameter pores. The compound prepared according to example 1 was diluted in chemotaxis buffer at various concentrations (5 µM, 100 nM, 1 nM, 0.1 nM) and was added, either alone or together with a solution of 1 µM ABA to the bottom of the plate. The suspension of the cells (25 µl/well) was added to the filter and the plate was incubated for 90 minutes at 37 °C. The migrated cells were transferred to a white 96-well plate and were counted with 60 µl of a solution containing 0.2 % (v/v) of Nonidet P40 and 1 µM Sitox green. After a 20-minute incubation at 37 °C, the fluorescence was measured with Fluostar OPTIMA fluorometer (excitation wavelength λexc = 485 nm and emission wavelength λemis = 520 nm) and the cell number was computed by using a standard cellular curve obtained from serial diltion cellular suspension of granulocytes. The result is expressed as the "chemotactic index" (CI), which corresponds to the ratio of the number of cells migrated towards the chemoattractant divided by the number of cells migrated towards the substrate). A chemotactic index higher than 1 is indicative of chemoattraction of cells. The test was carried out three times in sextuplicate.

human granulocytes = assay: Production of reactive oxygen species (ROS), H2DCFDA fluorescence; type: cell-based
Method: Human granulocitytes, after ON incubation in complete DMEM/F12, were resuspended at 1x10^7/ml in HBSS and spiked with the fluorescent probe (10 µM), specific for ROS determination, 2',7'-dichlorodihydrofluorescein diacetate (H2DCFDA), for 30 min at 37 °C.
They were subsequently washed twice with HBSS and resuspended at 1x10^6 cells/ml in HBSS and then were kept at room temperature for approximately 30 minutes.
The cells (100 µl) were added to a 96-well plate pre-loaded with ABA 1 µM, either alone or with increasing concentrations of the compound prepared according to example 1.
The increase in fluorescence was measured at 10-sec intervals for 10 minutes, with Fluostar OPTIMA fluorometer (λexc: 485; λemis: 520).
The experiment was carried out three times in triplicate.
Human granulocutes stimulated with 1 µM ABA become activated, and produce quite large amounts of reactive oxygen species (ROS) (Bruzzone, jbc 2007). The results were expressed as the average of the results obtained from three independent experiments, from which the background value, obtained from the control, had been subtracted. TABLE 4. Inhibition of ROS production, in human granulocytes stimulated with ABA, by compound prepared according to example 1.

human monocytes = assay: Inhibition of ABA-induced MCP-1 production in monocytes (ELISA); type: cell-based; details: 6 h
Method: Monocytes, 25 x 10^6/Petri in complete RPMI, were incubated for 6 h with 100 nM ABA either alone, or in the presence of compound prepared according to example 1, at a concentration of 1 µM. At the end of the incubation, the substrate was centrifuged at 17,000xg for 5 minutes and the release of MCP-1 (monocyte chemotactic protein-1) was quantitated by means of kit MC=-1 Elisa kit (GE Healthcare), in accordance with the instructions supplied by the manufacturer.
The cells were lysed in 200 µl of deionized water in order to quantitate total proteins by the Bradford method, after thre preliminary generation of a reference standard curve, obtained with different concentrations of bovine serum albumin. The spectrophotometric measurements were carried out at wavelength of 595 nm.
The experiment was carried out three times in sextuplicate.
The results were expressed as the average of the results from three independent experiments, as referred to control value. […] TABLE 8. Inhibition of MCP-1 production in human monocytes by compound prepared according to example 1

INS-1 cells = assay: Insulin release (secretion index) by INS-1 cells, scr or LANCL-2 silenced; type: cell-based, rat; details: 30 minutes
Method: Insulinoma cells of INS-1 rat were transfected with LANCL-2 silencing RNAs LANCL-2 (siRNAL2) or with nonsense RNA (scr) and were incubated in 5 mM glucose (LG) oppure 25 mM glucose (HG), in the absence or in the presence of 100 nM ABA or of compound according to example 1 (100 nM). Insulin release is expressed as the secretion index (SI) relative to insulin release in LG. As regards the experimental procedure, with the exception of use of compound according to example 1, reference can be made to the following paper, in which the properties which are the subject-matter of the present example were investigated for only ABA. Sturla L, Fresia C, Guida L, Grozio A, Vigliarolo T, Mannino E, Millo E, Bagnasco L, Bruzzone S, De Flora A, Zocchi E. Binding of abscisic acid to human LANCL2. Biochem Biophys Res Commun. 2011 Nov 18;415(2):390-5. TABLE 12. Effect of ABA and of compound from example 1 on insulin release (SI) by […] at 30 minutes.

[1] = system: Human pancreatic beta cells; assay: Insulin release (secretion index) by human pancreatic beta cells; type: cell-based
Method: Human pancreatic beta cells were incubated in 5 […], or 25 mM glucose (HG), in the absence or in the presence of 100 nM ABA or of compound according to example 1 ([…]). Insulin release is expressed as the secretion index (SI) relative to insulin release in LG..
As in the preceding example, for the experimental procedere, reference may be made to the there cited paper, except for the specific use of compound according to example 1. TABLE 13. Effect of ABA and of compound prepared according to example 1 on insulin release (SI) by human pacreatic beta cells at 30 minutes and 120 minutes.

[2] = LANCL2 siRNA, HG (25 mM glucose), substance 100 nM
[3] = LANCL2 siRNA, LG (5 mM glucose), substance 100 nM
[4] = SCR, HG (25 mM glucose), substance 100 nM
[5] = SCR, LG (5 mM glucose), substance 100 nM
[6] = LG, substance 100 nM, at 30 minutes
[7] = LG, substance 100 nM, at 120 minutes

Q: `CC1=CC(=O)CC(C)(C)C1(O)/C=C/C(C)=C\C(=O)O` (racemic) [ABA, (2Z,4E)-5-(1-hydroxy-2,6,6-trimethyl-4-oxo-2-cyclohexen-1-yl)-3-methyl-2,4-pentadienoic acid, reference compound] was tested. Which “CI±SD (chemotactic index)” value (granulocytes; ABA 1 µM alone) did it give?
A: 1.63±0.10

Q: And the “Increase in fluorescence (delta OD)±SD” value (human granulocytes; ABA 1 µM alone)?
A: 1238±8.7 delta OD

Q: What about the “MCP-1 relatively to control ± SD” value (human monocytes; ABA 100 nM alone) of the same compound?
A: 2±0.2

Q: And the “insulin release, secretion index (SI) relative to LG” value (INS-1 cells; [2])?
A: 1.7

Q: What about the “insulin release, secretion index (SI) relative to LG” value (INS-1 cells; [3]) of the same compound?
A: 1

Q: And the “insulin release, secretion index (SI) relative to LG” value (INS-1 cells; [4])?
A: 6.4

Q: What about the “insulin release, secretion index (SI) relative to LG” value (INS-1 cells; [5]) of the same compound?
A: 1.7

Q: What about the “SI (insulin secretion index relative to LG)” value [1, 6] of the same compound?
A: 0,91

Q: What about the “SI (insulin secretion index relative to LG)” value [1, 7] of the same compound?
A: 1,8

Q: Which results are given for `CC(=C/C(=O)O)/C=C/C1(O)C(C)(C)CC(=O)C2OC21C` (stereo not drawn) [Example 1, 2'α,3'α-dihydro-2'α,3'α-epoxyabscisic acid]?
A: CI±SD (chemotactic index) (granulocytes; ABA 1 µM + compound 0.1 nM): 1.37±0.05; CI±SD (chemotactic index) (granulocytes; ABA 1 µM + compound 1 nM): 1.32±0.05; CI±SD (chemotactic index) (granulocytes; ABA 1 µM + compound 100 nM): 1.12±0.04; CI±SD (chemotactic index) (granulocytes; ABA 1 µM + compound 5 µM): 0.78±0.03; pIC50 (granulocytes; Homo sapiens): ~9.00; inhibition at 0.0001 µM (granulocytes; Homo sapiens, migration towards ABA 1 µM, compound 0.1 nM): 38%; inhibition at 0.001 µM (granulocytes; Homo sapiens, migration towards ABA 1 µM, compound 1 nM): 47%; inhibition at 0.1 µM (granulocytes; Homo sapiens, migration towards ABA 1 µM, compound 100 nM): 80%; inhibition at 5 µM (granulocytes; Homo sapiens, migration towards ABA 1 µM, compound 5 µM): 100%; Increase in fluorescence (delta OD)±SD (human granulocytes; ABA 1 µM + compound 0.01 nM): 1325±26.5 delta OD; Increase in fluorescence (delta OD)±SD (human granulocytes; ABA 1 µM + compound 0.5 nM): 680±13.6 delta OD; Increase in fluorescence (delta OD)±SD (human granulocytes; ABA 1 µM + compound 1 nM): 371±1.9 delta OD; Increase in fluorescence (delta OD)±SD (human granulocytes; ABA 1 µM + compound 1 µM): 46±0.2 delta OD; inhibition at 10 pM (human granulocytes; Homo sapiens, ROS production, ABA 1 µM, compound 0.01 nM): 0%; inhibition at 0.0005 µM (human granulocytes; Homo sapiens, ROS production, ABA 1 µM, compound 0.5 nM): 45%; inhibition at 0.001 µM (human granulocytes; Homo sapiens, ROS production, ABA 1 µM, compound 1 nM): 70%; inhibition at 1 µM (human granulocytes; Homo sapiens, ROS production, ABA 1 µM, compound 1 µM): 96%; pIC50 (human granulocytes; Homo sapiens, inhibiting the production of ROS, ABA 1 µM): ~9.30; MCP-1 relatively to control ± SD (human monocytes; ABA 100 nM + compound 1 µM): 0.8±0.2; inhibition at 1 µM (human monocytes; Homo sapiens, Monocyte, ABA 100 nM + compound 1 µM): 100%; insulin release, secretion index (SI) relative to LG (INS-1 cells; [2]): 3; insulin release, secretion index (SI) relative to LG (INS-1 cells; LANCL2 siRNA, HG, ABA 100 nM + compound 100 nM together): 8; insulin release, secretion index (SI) relative to LG (INS-1 cells; [3]): 2; insulin release, secretion index (SI) relative to LG (INS-1 cells; LANCL2 siRNA, LG, ABA 100 nM + compound 100 nM together): 5; insulin release, secretion index (SI) relative to LG (INS-1 cells; [4]): 6; insulin release, secretion index (SI) relative to LG (INS-1 cells; SCR, HG, ABA 100 nM + compound 100 nM together): 12; insulin release, secretion index (SI) relative to LG (INS-1 cells; [5]): 2.5; insulin release, secretion index (SI) relative to LG (INS-1 cells; SCR, LG, ABA 100 nM + compound 100 nM together): 8.5; SI (insulin secretion index relative to LG) ([1]; HG, ABA (100 nM) + compound (100 nM) together, time not printed in the row): 3,8; SI (insulin secretion index relative to LG) ([1]; LG, ABA (100 nM) + compound (100 nM) together, time not printed in the row): 0,72; SI (insulin secretion index relative to LG) [1, 6]: 1,8; SI (insulin secretion index relative to LG) [1, 7]: 2,2
